Measured values reported in US20240085425A1, “BIOMARKER AND APPLICATION THEREOF” (ADLAI NORTYE BIOPHARMA CO., LTD., priority 2022, published 2024).
pIC50: −log10 of the molar value.

Assays:
Assay in all cases: Tumor cell proliferation inhibition (Promega cell viability, 72 h)
Assay type in all cases: cell-based
BT-20 = settings: Homo sapiens, BT-20 cells, read-out: Anti-proliferation IC50
Description: (§1) The cell lines used in the experiment are various tumor cells, including DU4475, Colo205, HepG2, PLC/PRF/5, BT-20, LS174T, NCI-H929, HCT116, SW620, SK-CO-1, SW480, DLD1, HT-29, SW900, SW1417, HuH7, H2009, PANC-1, SW48, Duadi, H358, HCT15, 22Rv1, Hela, RKO, Raji, Jurkat, NCI-H716, MDA-MB-231, NCI-H157 and THP1, and the inhibitory effect of the compound of the present disclosure on the proliferation of these tumor cells is determined, in order to screen out sensitive cell types of the compound of the present disclosure.
(§2) DU4475, Colo205, HepG2, PLC/PRF/5, BT-20, LS174T, NCI-H929, HCT116, SW620, SK-CO-1, SW480, DLD1, HT-29, SW900, SW1417, HuH7, H2009, PANC-1, SW48, Duadi, H358, HCT15, 22Rv1, Hela, RKO, Raji, Jurkat, NCI-H716, MDA-MB-231, NCI-H157 and THP1 cell lines cultured in each medium were treated during the logarithmic growth phase, and the cells were collected and prepared into a uniform cell suspension of known concentration, and then added to the 96-well cell culture plate to make each well contain 1000 cells. Put it into a 5% CO2 incubator and incubate at 37° C. for 20-24 h. The next day, the fully dissolved 3-fold gradient diluted compound was added to each cell culture well, so that the final maximum concentration in the cell culture well was 20 μM, and the culture was continued for 72 hours. In this test, Promega's cell viability detection test is used for detection. The more the cells proliferate, the stronger the final signal intensity will be. The detection instrument is SpectraMax, full wavelength mode. The wells with only DMSO added were used as positive control wells, and the wells without cells inoculated were used as negative control wells. The IC50 value of each compound for different cell proliferation inhibition was calculated to evaluate the inhibitory effect of the compound on different tumor cells.

DLD1 = settings: Homo sapiens, DLD-1, DLD1 cells, read-out: Anti-proliferation IC50
Description: as §1, §2

Hela = settings: Homo sapiens, Hela cells, read-out: Anti-proliferation IC50
Description: as §1, §2

HepG2 = settings: Homo sapiens, HepG2 cells, read-out: Anti-proliferation IC50
Description: as §1, §2

HuH7 = settings: Homo sapiens, Huh-7, HuH7 cells, read-out: Anti-proliferation IC50
Description: as §1, §2

Jurkat = settings: Homo sapiens, Jurkat cells, read-out: Anti-proliferation IC50
Description: as §1, §2

LS174T = settings: Homo sapiens, LS174T cells, read-out: Anti-proliferation IC50
Description: as §1, §2

MDA-MB-231 = settings: Homo sapiens, MDA-MB-231 cells, read-out: Anti-proliferation IC50
Description: as §1, §2

NCI-H157 = settings: Homo sapiens, NCI-H157 cells, read-out: Anti-proliferation IC50
Description: as §1, §2

NCI-H716 = settings: Homo sapiens, NCI-H716 cells, read-out: Anti-proliferation IC50
Description: as §1, §2

NCI-H929 = settings: Homo sapiens, NCI-H929 cells, read-out: Anti-proliferation IC50
Description: as §1, §2

PANC-1 = settings: Homo sapiens, PANC-1 cells, read-out: Anti-proliferation IC50
Description: as §1, §2

PLC/PRF/5 = settings: Homo sapiens, PLC/PRF/5 cells, read-out: Anti-proliferation IC50
Description: as §1, §2

SK-CO-1 = settings: Homo sapiens, SK-CO-1 cells, read-out: Anti-proliferation IC50
Description: as §1, §2

SW1417 = settings: Homo sapiens, SW1417 cells, read-out: Anti-proliferation IC50
Description: as §1, §2

SW480 = settings: Homo sapiens, SW480 cells, read-out: Anti-proliferation IC50
Description: as §1, §2

SW620 = settings: Homo sapiens, SW-620, SW620 cells, read-out: Anti-proliferation IC50
Description: as §1, §2

SW900 = settings: Homo sapiens, SW900 cells, read-out: Anti-proliferation IC50
Description: as §1, §2

THP1 = settings: Homo sapiens, THP-1, THP1 cells, read-out: Anti-proliferation IC50
Description: as §1, §2

pIC50 (BT-20) | pIC50 (DLD1) | pIC50 (Hela) | pIC50 (HepG2) | pIC50 (HuH7) | pIC50 (Jurkat) | pIC50 (LS174T) | pIC50 (MDA-MB-231) | pIC50 (NCI-H157) | pIC50 (NCI-H716) | pIC50 (NCI-H929) | pIC50 (PANC-1) | pIC50 (PLC/PRF/5) | pIC50 (SK-CO-1) | pIC50 (SW1417) | pIC50 (SW480) | pIC50 (SW620) | pIC50 (SW900) | pIC50 (THP1) | SMILES
7.66 | 6.50 | < 5.00 | 7.96 | 7.21 | < 5.00 | 7.58 | < 5.00 | < 5.00 | < 5.00 | 6.89 | 7.32 | 7.74 | 6.55 | 7.48 | 6.52 | 6.55 | 7.58 | < 5.00 | Cc1nc(C(F)(F)F)ncc1Oc1ccc(CNc2nc(C)c3c(n2)N(C)[C@@H](C)C(=O)N3)cn1 [AN10250484]
6.87 | 7.02 | < 5.00 | 6.89 | 6.98 | < 5.00 | 6.99 | < 5.00 | < 5.00 | < 5.00 | 6.40 | 6.85 | 7.20 | 6.47 | 6.77 | 6.52 | 7.00 | 7.24 | < 5.00 | [2H]C([2H])([2H])N1c2nc(NCc3ccc(Oc4cnc(C(F)(F)F)nc4)nc3)nc3c2N(CCC3)C(=O)[C@]1(C)CO [AN10250399]
